Assays:
[1] = system: subjects with substantial public speaking anxiety; assay: Trier Social Stress Test (TSST) public speaking challenge, randomized double-blind placebo-controlled study: SUDS, CGI-C, PGI-C; type: in vivo, human; parameters: key to SUDS Mean: SUDS 0–100; 0 = no distress/totally relaxed, 100 = highest anxiety ever felt; details: for PGI-C Mean / CGI-C Mean: Post-TSST
Description: A multicenter, randomized, double-blind, placebo-controlled study evaluates the efficacy and safety of VQW-765 in subjects with substantial public speaking anxiety. […] The study design is illustrated in FIG. 1 and Table 2 (below). Visit 1 includes screening for eligibility. At visit 2, subjects are asked for a baseline SUDS rating and then randomized to one of two arms in a 1:1 ratio. […] VQW-765 is provided in the form of capsules that are white, opaque, hard gelatin, size 3, containing 10 mg VQW-765 and lactose monohydrate, microcrystalline cellulose, methocel, croscarmellose sodium, colloidal silicon dioxide, and magnesium stearate. Placebo capsules are provided in size and appearance identical to those containing VQW-765. Two hours later, subjects are instructed to prepare for a 5-minute speech for a mock job interview (resting phase). After 3 minutes of preparation (anticipation phase), the subject delivered the speech in front of an interview panel with two clinical staff (performance phase). SUDS rating was collected at each minute from the resting to performance phase. Eligible subjects are trained to use SUDS, a self-reported rating scale from 0 to 100, used to measure the intensity of anxiety during the TSST. A SUDS rating of “0” equals “no distress/totally relaxed” and 100 equals “highest anxiety/distress that you have ever felt.” In addition, the Liebowitz Social Anxiety Score (LSAS) is administered, and blood samples are collected for pharmacogenetic analysis. LSAS is a clinician-administered rating scale used to assess how social anxiety plays a role in daily life across a variety of situations. The LSAS is used to study outcomes in clinical trials, and includes 24 items to assess both social anxiety in situations and avoidance of those situations. Each item is rated as 0, none; 1, mild; 2, moderate; or 3, severe. The maximal score is 144. After a waiting period of about two (2) hours from administration of study medication, subjects receive a modified Trier Social Stress Test (TSST) involving a public speaking challenge. The subject is instructed to prepare for a 5-minute speech for a job interview, and is asked for a SUDS rating (resting phase). Then the subject has 3 minutes to mentally prepare. A SUDS rating is collected at each minute interval (anticipation phase). Next, the subject gives a 5-minute speech to an audience of two clinical staff members dressed in white coats and previously unknown to the subject. A SUDS rating is collected just before the speech and then at each minute during the speech (performance phase). The speech is video recorded, and the video camera is observed by the subject. […] Physiological biomarkers associated with anxiety or acute stress response, including heart rate, blood pressure, body temperature, and sweating are monitored continuously by medical devices, including an ePatch Extended Holter Device throughout the Public Speaking challenge.

[2] = system: subjects with substantial public speaking anxiety; type: in vivo, human
[3] = Plasma concentration of VQW-765 after the TSST by LC-MS/MS; details: single oral 10 mg; for Mean plasma concentration: female subjects

Cc1ccc(-c2ccc(O[C@H]3CN4CCC3CC4)cn2)cc1 [VQW-765, (R)-3-(6-p-tolyl-pyridin-3-yloxy)-1-aza-bicyclo[2.2.2]octane]
SUDS Mean ([1]; Female (n = 82), Anticipation phase, P-value 0.0446 vs placebo): 54.80
SUDS Mean ([1]; Female (n = 82), Performance phase, P-value 0.0342 vs placebo): 59.55
SUDS Mean ([1]; Female (n = 82), Pre-dose phase (baseline), P-value 0.2239 vs placebo): 34.27
SUDS Mean ([1]; Female (n = 82), Resting phase, P-value 0.0576 vs placebo): 49.15
SUDS Mean ([1]; Female-50% quartile of exposure (n = 38), Anticipation phase, P-value 0.0384 vs placebo): 53.07
SUDS Mean ([1]; Female-50% quartile of exposure (n = 38), Performance phase, P-value 0.0046 vs placebo): 54.37
SUDS Mean ([1]; Female-50% quartile of exposure (n = 38), Pre-dose phase (baseline), P-value 0.4530 vs placebo): 36.58
SUDS Mean ([1]; Female-50% quartile of exposure (n = 38), Resting phase, P-value 0.0577 vs placebo): 47.63
response on SUDS compared to placebo ([1]; Females, performance phase, p=0.034): larger magnitude and significant response
SUDS Mean ([1]; ITT (n = 116), Anticipation phase, single oral 10 mg, P-value 0.0890 vs placebo): 52.96
SUDS Mean ([1]; ITT (n = 116), Performance phase, single oral 10 mg, P-value 0.1164 vs placebo): 58.60
PGI-C Mean ([1]; ITT (n = 116), scale 1 to 7, P-value 0.3993 vs placebo): 3.4
CGI-C Mean ([1]; ITT (n = 116), scale 1 to 7, P-value 0.4038 vs placebo): 3.6
SUDS Mean ([1]; ITT (n = 116), Pre-dose phase (baseline), single oral 10 mg, P-value 0.2215 vs placebo): 34.66
SUDS Mean ([1]; ITT (n = 116), Resting phase, single oral 10 mg, P-value 0.1423 vs placebo): 47.76
SUDS Mean ([1]; ITT-50% quartile of exposure (n = 56), Anticipation phase, P-value 0.0472 vs placebo): 50.89
SUDS Mean ([1]; ITT-50% quartile of exposure (n = 56), Performance phase, P-value 0.0332 vs placebo): 55.36
SUDS Mean ([1]; ITT-50% quartile of exposure (n = 56), Pre-dose phase (baseline), P-value 0.3845 vs placebo): 35.89
SUDS Mean ([1]; ITT-50% quartile of exposure (n = 56), Resting phase, P-value 0.1059 vs placebo): 46.25
SUDS Mean ([1]; ITT-LSAS ≥ 60 (n = 97), Anticipation phase, P-value 0.1535 vs placebo): 54.05
SUDS Mean ([1]; ITT-LSAS ≥ 60 (n = 97), Performance phase, P-value 0.1664 vs placebo): 59.67
SUDS Mean ([1]; ITT-LSAS ≥ 60 (n = 97), Pre-dose phase (baseline), P-value 0.3225 vs placebo): 37.01
SUDS Mean ([1]; ITT-LSAS ≥ 60 (n = 97), Resting phase, P-value 0.1509 vs placebo): 49.28
PGI-C, difference to placebo ([1]; ITT, p=0.399): No significant differences
CGI-C, difference to placebo ([1]; ITT, p=0.404): No significant differences
intensity of anxiety as measured by the SUDS compared to placebo ([1]; ITT, performance phase, p=0.116): trend of improvement
performance anxiety compared to placebo ([1]; LSAS total score≥60 with efficacious exposures, p=0.014): significantly reduced
performance anxiety compared to placebo ([1]; females, LSAS total score≥60 with efficacious exposures, p=0.004): significantly reduced
SUDS compared to placebo ([1]; males with efficacious exposures, FIG. 5C): do not show improvement
SUDS rating compared to placebo ([1]; males, FIG. 2C): do not show improvement
SUDS rating compared to placebo ([1]; middle 50% of exposure, second and third quartiles, VQW-M (1.5-8 pmol/ml), p=0.033): significant improvement
SUDS Mean ([1]; post-hoc, Female-Efficacious exposure (n = 46), Anticipation phase, P-value 0.0116 vs placebo): 51.38
SUDS Mean ([1]; post-hoc, Female-Efficacious exposure (n = 46), Performance phase, P-value 0.0029 vs placebo): 54.00
CGI-C Mean ([1]; post-hoc, Female-Efficacious exposure (n = 46), P-value 0.2417 vs placebo): 3.4
PGI-C Mean ([1]; post-hoc, Female-Efficacious exposure (n = 46), P-value 0.4655 vs placebo): 3.4
SUDS Mean ([1]; post-hoc, Female-Efficacious exposure (n = 46), Pre-dose phase (baseline), P-value 0.4267 vs placebo): 36.30
SUDS Mean ([1]; post-hoc, Female-Efficacious exposure (n = 46), Resting phase, P-value 0.0282 vs placebo): 46.52
SUDS Mean ([1]; post-hoc, ITT-Efficacious exposure (n = 69), Anticipation phase, P-value 0.0165 vs placebo): 49.86
SUDS Mean ([1]; post-hoc, ITT-Efficacious exposure (n = 69), Performance phase, P-value 0.0202 vs placebo): 54.96
CGI-C Mean ([1]; post-hoc, ITT-Efficacious exposure (n = 69), P-value 0.4343 vs placebo): 3.5
PGI-C Mean ([1]; post-hoc, ITT-Efficacious exposure (n = 69), P-value 0.5525 vs placebo): 3.4
SUDS Mean ([1]; post-hoc, ITT-Efficacious exposure (n = 69), Pre-dose phase (baseline), P-value 0.3368 vs placebo): 35.51
SUDS Mean ([1]; post-hoc, ITT-Efficacious exposure (n = 69), Resting phase, P-value 0.0471 vs placebo): 45.07
anxiety (SUDS) during the TSST compared to placebo ([1]; post-hoc, subjects not wearing a face mask (n=5 on VQW-765, n=6 on placebo), FIG. 9): significantly less anxious
performance anxiety compared to placebo ([1]; post-hoc, subjects with efficacious exposures, p=0.020, FIG. 5A): significantly alleviated
CGI-C, difference to placebo ([1]; post-hoc, subjects with efficacious exposures, p=0.325): does not reveal any significant difference
PGI-C, difference to placebo ([1]; post-hoc, subjects with efficacious exposures, p=0.376): does not reveal any significant difference
pattern of HRV change ([2]; in vivo): significant decline
pattern of HRV increase ([2]; performance and recovery phases, FIGS. 6C, 6D): steady
Mean plasma concentration ([3]; exposure group PC-1 (n = 7)): 0.25 nM
Mean plasma concentration ([3]; exposure group PC-2 (n = 7)): 1.18 nM
Mean plasma concentration ([3]; exposure group PC-3 (n = 8)): 1.58 nM
Mean plasma concentration ([3]; exposure group PC-4 (n = 8)): 2.06 nM
Mean plasma concentration ([3]; exposure group PC-5 (n = 8)): 2.9 nM
Mean plasma concentration ([3]; exposure group PC-6 (n = 8)): 3.82 nM
Mean plasma concentration ([3]; exposure group PC-7 (n = 8)): 5.1 nM
Mean plasma concentration ([3]; exposure group PC-8 (n = 8)): 7.04 nM
Mean plasma concentration ([3]; exposure group PC-9 (n = 8)): 9.79 nM
Mean plasma concentration ([3]; exposure group PC-10 (n = 7)): 13.39 nM
plasma concentrations in the middle 50%, second and third quartiles [3]: 1.57 to 6.32 nM
